Here are results for four molecules from paper PMC4472245, “Alternative divalent cations (Zn^2+, Co^2+, and Mn^2+) are not mutagenic at conditions optimal for HIV-1 reverse transcriptase activity” (BMC Biochemistry, 2015).

Assay [1] concerns the target T1, HIV RT (HIV-1 reverse transcriptase, p66/p51) (HIV-1 M:B_HXB2R, UniProt P04585).
T1 construct: gene gag-pol
The settings on record: read-out: ^d K m / μM, 0.4 mM free Zn2+ instead of Mg2+, DNA primer-template, pH 7.7, 37 °C.
From the text: steady-state running-start incorporation, gel on HIV RT (HIV-1 reverse transcriptase, p66/p51)

The target in assay [2] is T1, HIV RT (HIV-1 reverse transcriptase, p66/p51). The conditions noted are these: read-out: ^d K m / μM; 0.4 mM free Zn2+ instead of Mg2+; DNA primer-template with matched C.G 3' end; next correct nucleotide; pH 7.7, 37 °C, 80 mM KCl.

Molecules are shown by their SMILES. Where two headings read alike, the source gives them in different places.

Regarding `Nc1ncnc2c1ncn2[C@H]1C[C@H](O)[C@@H](COP(=O)(O)OP(=O)(O)OP(=O)(O)O)O1` [dATP], in assay [1] (misinsertion opposite template C (C.A mismatch)), the Km is 518 ± 43 µM.
For the molecule `Nc1ccn([C@H]2C[C@H](O)[C@@H](COP(=O)(O)OP(=O)(O)OP(=O)(O)O)O2)c(=O)n1` [dCTP], the Km in assay [2] was 0.04 ± 0.01 µM.
Take `Nc1nc2c(ncn2[C@H]2C[C@H](O)[C@@H](COP(=O)(O)OP(=O)(O)OP(=O)(O)O)O2)c(=O)[nH]1` [dGTP]: in assay [1] (correct insertion opposite template C (C.G), 55 μM dATP), the Km was 0.19 ± 0.09 µM.
Turning to `Cc1cn([C@H]2C[C@H](O)[C@@H](COP(=O)(O)OP(=O)(O)OP(=O)(O)O)O2)c(=O)[nH]c1=O` [dTTP], in assay [1] (misinsertion opposite template C (C.T mismatch), 55 μM dATP), the Km was determined as 244 ± 102 µM.
